In the experiment the test system is non-small cell lung carcinoma A549 cells. The experiment in a line: Example 2: in-vivo test of spores combined with chemotherapy medicines in A549 tumor-bearing nude mice. Also noted: species or system Balb/c-nu/nu nude mice. The protocol:
The non-small cell lung carcinoma A549 cells were injected into the subcutaneous positions at femoral lateral parts of right backs of female Balb/c-nu/nu nude mice (5 weeks old, 20 g) by subcutaneous injection. The in-vivo test was performed when the tumor volume was 300 mm^3.
Control group: n=15, and 0.2 ml of PBS buffer was intravenously injected to the tails;
Docetaxel group: n=15, Docetaxel was intravenously injected to the tails on the 4th day and 11th day, the dose was 20 mg/(kg·body weight), and the application dose of Docetaxel was the optimal application dose.
MW-DCG-HNCv-18 spore group: n=15, spores were intravenously injected to the tails, and the dose was 3×10^8/(kg·body weight).
MW-DCG-HNCv-18 spore+Cetuximab group: n=15, MW-DCG-HNCv-18 spores were intravenously injected to the tails on the first day, and the dose was 3×10^8/(kg·body weight); Cetuximab was intravenously injected to the tails on the 4th day and 11th day, the dose was 70 mg/(kg·body weight), and the application dose of Cetuximab was the optimal application dose.
MW-DCG-HNCv-18 spore+[…]: n=15, MW-DCG-HNCv-18 spores were intravenously injected to the tails on the first day, and the dose was 3×10^8/(kg·body weight); Adriacin was intravenously injected to the tails on the 4th day and 11th day, the dose was 10 mg/(kg·body weight), and the application dose of Adriacin was the optimal application dose.
MW-DCG-HNCv-18 spore+Docetaxel group: n=15, MW-DCG-HNCv-18 spores were intravenously injected to the tails on the first day, and the dose was 3×10^8/(kg·body weight); Docetaxel was intravenously injected to the tails on the 4th day and 11th day, and the dose was 20 mg/(kg·body weight).
C. novyi-NT spore+Docetaxel group: n=15, C. novyi-NT spores were intravenously injected to the tails on the first day, and the dose was 3×10^8/(kg·body weight);
Docetaxel was intravenously injected to the tails on the 4th day and 11th day, and the dose was 20 mg/(kg·body weight).
The major diameter (a) and transverse diameter (b) of the transplanted tumors of the nude mice were measured with a vernier caliper, 3 to 4 times a week, the tumor volume of each group was calculated, and the anti-tumor effects of the strains were observed dynamically. At the same time, the body weight, feeding, drinking, mental state, behavior, fur color, excretion and death situations of the tumor-bearing mice were observed and recorded.
The tumor volume (V=½×a×b^2) was calculated according to the measured major diameter and transverse diameter data of the tumors, the curve was drawn and the tumors were observed dynamically. […]
The overall survival time of the tumor-bearing mice: the nude mice in each group after processing were fed until natural death, and the survival time was calculated.

Setting [1] is: spores 3×10^8/(kg·body weight) i.v. day 1, drug i.v. 4th and 11th day (Docetaxel 20, Cetuximab 70, Adriacin 10 mg/kg).

Turning to `CC(=O)O[C@@]12CO[C@@H]1C[C@H](O)[C@@]1(C)C(=O)[C@H](O)C3=C(C)[C@@H](OC(=O)[C@H](O)[C@@H](NC(=O)OC(C)(C)C)c4ccccc4)C[C@@](O)([C@@H](OC(=O)c4ccccc4)[C@H]21)C3(C)C` [Docetaxel], for the setting “animals with tumor completely removed/total, spores 3×10^8/kg day 1, drug i.v. 4th and 11th day”, the Cure rate was 0%. Moreover, under setting [1], the Necrosis rate was determined as 22.2% and the Tumor inhibition rate turned out to be 55.9%. In addition, the mean survival days (spores 3×10^8/kg day 1, drug i.v. 4th and 11th day, fed until natural death) is 35.5 days.

(Values after patent publication US10314809B2, “Application of derivative of clostridium ghonii” (SHANDONG XINCHUANG BIOTECHNOLOGY CO., LTD., priority 2014, dated 2019).)
